“And” between values parts separate entries of the source, which are not always exact repeats. Equal values may be shown once. Read-outs that look alike come from different tables or passages of the source.
## C=CC(=O)N1CCC([C@@H]2CCNc3c(C(N)=O)c(-c4ccc(Oc5ccccc5)cc4)nn32)CC1 [zanubrutinib, (S)-7-(1-acryloylpiperidin-4-yl)-2-(4-phenoxyphenyl)-4,5,6,7-tetrahydropyrazolo[1,5-a]pyrimidine-3-carboxamide]
During Coadministration
  Opportunistic infection AESI, EAIR: 0.67 per 100 person-months
  Opportunistic infection AESI, patients: 2.9%
  Opportunistic infection SAEs, EAIR: 0.50 per 100 person-months
  Patients with at least 1 AESI: 67 (48.6) n (%)
  Petechiae (hemorrhage AESI): 0.7%
  Platelet count decreased PT: 2.2%
  Platelet count decreased ≥Grade 3: 1.4%
  Purpura (hemorrhage AESI): 0.0%
  SAEs of opportunistic infections, patients: 2.2% and 2.9%
  Second primary malignancies AESI leading to dose interruption: 1.4%
  Second primary malignancies AESI ≥Grade 3, EAIR: 0.33 per 100 person-months
  Second primary malignancies AESI ≥Grade 3, patients: 1.4%
  Second primary malignancies AESI, EAIR: 0.72 per 100 person-months
  Second primary malignancies AESI, patients: 2.9%
  Sepsis: 2.2%
  Serious AESI: 29 (21.0) n (%)
  Serious atrial fibrillation and flutter AESI, EAIR: 0.0 per 100 person-months
  Serious atrial fibrillation and flutter AESI, patients: 0.0%
  Serious external ear neoplasm malignant: 1 (0.7%) n (%)
  Serious haematuria: 0 (0.0%) n (%)
  Serious haematuria (major hemorrhage): 0 (0.0%) n (%)
  Serious hemorrhage AESI, EAIR: 0.0 per 100 person-months
  Serious hemorrhage AESI, patients: 0.0%
  Serious hypertension AESI, EAIR: 0.16 per 100 person-months
  Serious infection AESI, EAIR: 6.16 per 100 person-months
  Serious major hemorrhage AESI, EAIR: 0.0 per 100 person-months
  Serious major hemorrhage AESI, patients: 0.0%
  Serious neutropenia AESI, EAIR: 1.11 per 100 person-months
  Serious neutropenia AESI, patients: 4.3%
  Serious neutropenic sepsis: 0%
  Serious neutrophil count decreased: 0.7%
  Serious second primary malignancies AESI, EAIR: 0.33 per 100 person-months
  Serious second primary malignancies AESI, patients: 1.4%
  Serious squamous cell carcinoma of skin: 0 (0.0%) n (%)
  Sinusitis: 2.9%
  Skin cancer AESI ≥Grade 3, EAIR: 0.00 per 100 person-months
  Skin cancer AESI, EAIR: 0.17 per 100 person-months
  Skin cancer AESI, patients: 0.7%
  Skin cancer SAE, EAIR: 0.00 per 100 person-months
  Squamous cell carcinoma of skin: 0.7%
  Squamous cell carcinoma of skin ≥Grade 3: 0 (0.0%) n (%)
  Thrombocytopenia AESI leading to dose interruption: 1.4%
  Thrombocytopenia AESI ≥Grade 3, EAIR: 0.83 per 100 person-months
  Thrombocytopenia AESI ≥Grade 3, patients: 3.6%
  Thrombocytopenia AESI, EAIR: 1.52 per 100 person-months
  Thrombocytopenia AESI, patients: 6.5%
  Thrombocytopenia PT: 4.3%
  Viral upper respiratory tract infection: 2.2%
Prior to Coadministration
  Anemia AESI ≥Grade 3, EAIR: 0.54 per 100 person-months
  Anemia AESI, EAIR: 1.07 per 100 person-months
  Atrial fibrillation PT: 1.7%
  Atrial fibrillation and flutter AESI Grade ≥3, EAIR: 0.13 per 100 person-months
  Atrial fibrillation and flutter AESI Grade ≥3, patients: 1.7%
  Atrial fibrillation and flutter AESI, EAIR: 0.13 per 100 person-months
  Atrial fibrillation and flutter AESI, patients: 1.7%
  Atrial flutter PT: 0.0%
  Basal cell carcinoma: 4.2%
  Basal cell carcinoma leading to dose interruption: 2 (1.7%) n (%)
  Basal cell carcinoma ≥Grade 3: 2 (1.7%) n (%)
  Bronchopulmonary aspergillosis: 3 (2.5%) n (%)
  External ear neoplasm malignant leading to dose interruption: 2 (1.7%) n (%)
  Febrile neutropenia PT: 1.7%
  Grade 3 or higher AESI: 69 (58.0) n (%)
  Haematuria (hemorrhage AESI): 8.4%
  Haematuria (major hemorrhage): 2 (1.7%) n (%)
  Haematuria (major hemorrhage) ≥Grade 3: 2 (1.7%) n (%)
  Haematuria leading to dose interruption: 2 (1.7%) n (%)
  Haematuria ≥Grade 3: 2 (1.7%) n (%)
  Hemorrhage AESI leading to dose interruption: 3.4%
  Hemorrhage AESI leading to dose reduction: 1.7%
  Hemorrhage AESI ≥Grade 3, EAIR: 0.19 per 100 person-months
  Hemorrhage AESI ≥Grade 3, patients: 2.5%
  Hemorrhage AESI, EAIR: 9.70 per 100 person-months
  Hemorrhage AESI, patients: 55.5%
  Hepatitis B reactivation AESI: 2.5%
  Hepatitis B reactivation AESI ≥Grade 3: 2 (1.7%) n (%)
  Hypertension AESI ≥Grade 3, EAIR: 0.56 per 100 person-months
  Hypertension AESI ≥Grade 3, patients: 6.7%
  Hypertension AESI, EAIR: 1.13 per 100 person-months
  Hypertension AESI, patients: 12.6%
  Infection AESI leading to death: 0.8%
  Infection AESI leading to dose reduction: 7.6%
  Infection AESI leading to treatment discontinuation: 1.7%
  Infection AESI ≥Grade 3, EAIR: 3.82 per 100 person-months
  Infection AESI, EAIR: 18.08 per 100 person-months
  Major hemorrhage AESI leading to dose interruption: 1.7%
  Major hemorrhage AESI ≥Grade 3, EAIR: 0.19 per 100 person-months
  Major hemorrhage AESI ≥Grade 3, patients: 2.5%
  Major hemorrhage AESI, EAIR: 0.25 per 100 person-months
  Major hemorrhage AESI, patients: 3.4%
  Malignant melanoma: 2 (1.7%) n (%)
  Meningitis cryptococcal: 2 (1.7%) n (%)
  Neutropenia AESI leading to dose reduction: 2.5%
  Neutropenia AESI leading to treatment interruption: 7.6%
  Neutropenia AESI ≥Grade 3, EAIR: 1.74 per 100 person-months
  Neutropenia AESI ≥Grade 3, patients: 20.2%
  Neutropenia AESI, EAIR: 2.72 per 100 person-months
  Neutropenia AESI, patients: 28.6%
  Neutropenic sepsis PT: 0.8%
  Neutropenic sepsis ≥Grade 3: 0.8%
  Neutrophil count decreased leading to dose reduction: 0.8%
  Opportunistic infection AESI leading to dose reduction: 3.4%
  Opportunistic infection AESI leading to treatment discontinuation: 0.8%
  Opportunistic infection AESI ≥Grade 3, EAIR: 0.38 per 100 person-months
  Opportunistic infection AESI ≥Grade 3, patients: 6 (5.0%) n (%)
  Opportunistic infection AESI, EAIR: 0.64 per 100 person-months
  Opportunistic infection AESI, patients: 8.4%
  Opportunistic infection SAEs, EAIR: 0.38 per 100 person-months
  Patients with at least 1 AESI: 115 (96.6) n (%)
  Petechiae (hemorrhage AESI): 5.9%
  Platelet count decreased PT: 3.4%
  Platelet count decreased ≥Grade 3: 0.8%
  Purpura (hemorrhage AESI): 5.9%
  SAEs of opportunistic infections, patients: 5.0% and 8.4%
  Second primary malignancies AESI leading to dose interruption: 4.2%
  Second primary malignancies AESI ≥Grade 3, EAIR: 0.32 per 100 person-months
  Second primary malignancies AESI ≥Grade 3, patients: 4.2%
  Second primary malignancies AESI, EAIR: 1.05 per 100 person-months
  Second primary malignancies AESI, patients: 12.6%
  Serious AESI: 53 (44.5) n (%)
  Serious anemia AESI, EAIR: 0.06 per 100 person-months
  Serious atrial fibrillation and flutter AESI, EAIR: 0.06 per 100 person-months
  Serious atrial fibrillation and flutter AESI, patients: 0.8%
  Serious external ear neoplasm malignant: 2 (1.7%) n (%)
  Serious haematuria: 2 (1.7%) n (%)
  Serious haematuria (major hemorrhage): 2 (1.7%) n (%)
  Serious hemorrhage AESI, EAIR: 0.25 per 100 person-months
  Serious hemorrhage AESI, patients: 3.4%
  Serious infection AESI, EAIR: 3.31 per 100 person-months
  Serious major hemorrhage AESI, EAIR: 0.25 per 100 person-months
  Serious major hemorrhage AESI, patients: 3.4%
  Serious neutropenia AESI, EAIR: 0.26 per 100 person-months
  Serious neutropenia AESI, patients: 3.4%
  Serious neutropenic sepsis: 0.8%
  Serious neutrophil count decreased: 0.0%
  Serious second primary malignancies AESI, EAIR: 0.39 per 100 person-months
  Serious second primary malignancies AESI, patients: 5.0%
  Serious squamous cell carcinoma of skin: 2 (1.7%) n (%)
  Skin cancer AESI ≥Grade 3, EAIR: 0.26 per 100 person-months
  Skin cancer AESI, EAIR: 0.69 per 100 person-months
  Skin cancer AESI, patients: 8.4%
  Skin cancer SAE, EAIR: 0.26 per 100 person-months
  Squamous cell carcinoma of skin: 5.0%
  Squamous cell carcinoma of skin ≥Grade 3: 2 (1.7%) n (%)
  Thrombocytopenia AESI leading to dose interruption: 0.8%
  Thrombocytopenia AESI ≥Grade 3, EAIR: 0.26 per 100 person-months
  Thrombocytopenia AESI ≥Grade 3, patients: 3.4%
  Thrombocytopenia AESI, EAIR: 0.79 per 100 person-months
  Thrombocytopenia AESI, patients: 9.2%
  Thrombocytopenia PT: 6.7%
All study periods
  Tumor lysis syndrome AESI: No AESI of tumor lysis syndrome were reported

— patent US11911386B2, “Methods of treating B-cell proliferative disorder” (BeiGene Switzerland GmbH, priority 2022, dated 2024)
